Measured values from paper PMC9533837 (Antiviral Research, 2003).
Values after ≈ are worked out from the molar mass of the structure shown. Like-named read-outs stand apart in the source and are kept apart here.

Assays:
VAC Copenhagen [1] = test: microbe, parasite or virus in culture; type: cell-based, vaccinia virus
[2] = system: VAR-BSH (1975 Bangladesh isolate of VAR major); test: organism not typed; type: cell-based, variola major
[3] = system: VAR-YAM (1946 Japan Yamada isolate of VAR major); test: organism not typed; type: cell-based, variola major
[4] = system: MPX Zaire (V79-1-005-Scab); test: organism not typed; type: cell-based, monkeypox
VAC = system: VAC; set-up: species or system mice; conditions: mouse, in vivo
[5] = system: MPX Zaire (V79-1-005-Scab); test: organism not typed; type: cell-based, monkeypox; remark: listed apart in the source
CPX = system: CPX; set-up: species or system mice; conditions: mouse, in vivo
[6] = system: VAR-GAR (1966 Brazil Garcia isolate of VAR minor); test: organism not typed; type: cell-based, variola minor
VAC Copenhagen [7] = test: microbe, parasite or virus in culture; type: cell-based, vaccinia virus; remark: listed apart in the source
CPX Brighton [8] = test: organism not typed; type: cell-based, cowpox
[9] = system: VAR-YAM (1946 Japan Yamada isolate of VAR major); test: organism not typed; type: cell-based, variola major; remark: listed apart in the source
[10] = system: VAR-GAR (1966 Brazil Garcia isolate of VAR minor); test: organism not typed; type: cell-based, variola minor; remark: listed apart in the source
CPX Brighton [11] = test: organism not typed; type: cell-based, cowpox; remark: listed apart in the source
[12] = system: VAR-BSH (1975 Bangladesh isolate of VAR major); test: organism not typed; type: cell-based, variola major; remark: listed apart in the source

Compound | Therapeutic index (TI) VAC LLC-MK2 (VAC Copenhagen [1]) | Therapeutic index (TI) VAR-BSH Vero [2] | Therapeutic index (TI) VAR-YAM Vero [3] | Therapeutic index (TI) MPX Vero [4] | protective effect on VAC-infected mice (VAC) | Therapeutic index (TI) MPX LLC-MK2 [5] | protective effect on CPX-infected mice (CPX) | Therapeutic index (TI) VAR-GAR LLC-MK2 [6] | Therapeutic index (TI) VAC Vero (VAC Copenhagen [7]) | Therapeutic index (TI) CPX Vero (CPX Brighton [8]) | Therapeutic index (TI) VAR-YAM LLC-MK2 [9] | Therapeutic index (TI) VAR-GAR Vero [10] | Therapeutic index (TI) CPX LLC-MK2 (CPX Brighton [11]) | Therapeutic index (TI) VAR-BSH LLC-MK2 [12] | further results
Nc1nccc2c1ncn2C1C=C(CO)C(O)C1O (single isomer, unassigned; (-)) [C3-Npc A, (−)-9-[trans-2′-trans-3′-dihydroxy-4′-hydroxymethyl-cyclopent-4′-enyl]-3-deazaadenine] | 2000 | 3333 | 2500 | 10000 | modest protective effect | 2000 | modest protective effect | 222 | 5000 | 1.0 | 417 | 2500 | 1.0 | 213 | IC50 (VAC Copenhagen [1]; Orthopoxvirus vaccinia, LLC-MK2, read-out: IC50 VAC LLC-MK2): 0.05 µg/mL (≈ 0.191 µM); IC50 ([2]; Vero, read-out: IC50 VAR-BSH Vero): 0.03 µg/mL (≈ 0.114 µM); IC50 ([3]; Vero, read-out: IC50 VAR-YAM Vero): 0.04 µg/mL (≈ 0.153 µM); IC50 ([4]; Vero, read-out: IC50 MPX Vero): 0.01 µg/mL (≈ 0.0381 µM); Cytotoxicity TC50 Vero (Vero cells; African green monkey): >100 µg/mL; IC50 ([5]; LLC-MK2, read-out: IC50 MPX LLC-MK2): 0.05 µg/mL (≈ 0.191 µM); Cytotoxicity TC50 LLC-MK2 (LLC-MK2 cells; rhesus monkey): >100 µg/mL; IC50 ([6]; LLC-MK2, read-out: IC50 VAR-GAR LLC-MK2): 0.45 µg/mL (≈ 1.72 µM); IC50 (VAC Copenhagen [7]; Orthopoxvirus vaccinia, Vero, read-out: IC50 VAC Vero): 0.02 µg/mL (≈ 0.0763 µM); IC50 (CPX Brighton [8]; Vero, read-out: IC50 CPX Vero): > 100 µg/mL; IC50 ([9]; LLC-MK2, read-out: IC50 VAR-YAM LLC-MK2): 0.24 µg/mL (≈ 0.915 µM); IC50 ([10]; Vero, read-out: IC50 VAR-GAR Vero): 0.04 µg/mL (≈ 0.153 µM); IC50 (CPX Brighton [11]; LLC-MK2, read-out: IC50 CPX LLC-MK2): > 100 µg/mL; IC50 ([12]; LLC-MK2, read-out: IC50 VAR-BSH LLC-MK2): 0.47 µg/mL (≈ 1.79 µM)
Nc1nccc2c1ncn2[C@@H]1C[C@@H](CO)[C@H](O)[C@@H]1O [C-ca3-Ado, Carbocyclic 3-deazaadenosine] | 29.4 | 83.3 | 18.9 | 250 | modest protective effect | 125 | modest protective effect | 22.7 | 83.3 | 1.0 | 71.4 | 62.5 | 4.0 | 62.5 | IC50 VAC LLC-MK2 (VAC Copenhagen [1]): 3.4 µg/mL (≈ 12.9 µM); IC50 VAR-BSH Vero [2]: 1.2 µg/mL (≈ 4.54 µM); IC50 VAR-YAM Vero [3]: 5.3 µg/mL (≈ 20.1 µM); IC50 MPX Vero [4]: 0.4 µg/mL (≈ 1.51 µM); Cytotoxicity TC50 Vero (Vero cells): >100 µg/mL; IC50 MPX LLC-MK2 [5]: 0.8 µg/mL (≈ 3.03 µM); Cytotoxicity TC50 LLC-MK2 (LLC-MK2 cells): >100 µg/mL; IC50 VAR-GAR LLC-MK2 [6]: 4.4 µg/mL (≈ 16.6 µM); IC50 VAC Vero (VAC Copenhagen [7]): 1.2 µg/mL (≈ 4.54 µM); IC50 CPX Vero (CPX Brighton [8]): >100 µg/mL; IC50 VAR-YAM LLC-MK2 [9]: 1.4 µg/mL (≈ 5.3 µM); IC50 VAR-GAR Vero [10]: 1.6 µg/mL (≈ 6.05 µM); IC50 CPX LLC-MK2 (CPX Brighton [11]): 25.2 µg/mL (≈ 95.4 µM); IC50 VAR-BSH LLC-MK2 [12]: 1.6 µg/mL (≈ 6.05 µM)
